The text below walks through data of the supplement of paper PMC11208160.
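Also: IS621 recombinase and bridge RNA in Escherichia coli cells.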

This data set is described as follows: recombinant barcode read abundance after kanamycin selection (control-corrected) (log10(CPM+1)); higher = more efficient recombination; sequences stand for … in AGTGCAGAGAAAATCGGCCAGTTTTCTCTGCCTGCAGTCCGCATGCCGT…AGATTTATGCAGCGGACTGCCTTTCTCCCAAAGTGATAAACCGGACAGTATCATGGACCGGTTTTCCCGGTAATCCGTATTTGCAAGGTTGGTTTCACT; site = the 11-nt target. Put shortly: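 This pooled E. coli screen matched targets with IS621 bridge RNA target-binding loops. Plating was done in duplicate on chloramphenicol/ampicillin LB agar as a control and on chloramphenicol/ampicillin/kanamycin plus 0.1 mM IPTG. Recombination efficiency reflects barcode counts at recombinant junctions as counts per million, averaged and control-corrected. The figures are log10(CPM+1).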
With “AGGTCGTCTTGGGTTCTAACCTGTTGCCT (site ACGTCGTCTAG)”, the “recombinant barcode read abundance (log10)” value is 0.146.

On to “AGGTCGTCTTGGGTTCTAACCTGTTGCCT (site AGGTCGTCTAG)”, for which the “recombinant barcode read abundance (log10)” value was 1.74.

Take “AGGTCGTCTTGGGTTCTAACCTGTTGCCT (site ATGTCGTCTAG)”: the “recombinant barcode read abundance (log10)” value is 0.0512.

With “AGGTGCCCTTGGGTTCTAACCTGTTGCCG (site AAGTGCTCTCG)”, the “recombinant barcode read abundance (log10)” value worked out at 0.235.

For the sequence “AGGTGCCCTTGGGTTCTAACCTGTTGCCG (site AGGTGCCCTCG)”, the “recombinant barcode read abundance (log10)” value came to 1.15.

As to “AGGTGTTCTTGGGTTCTAACCTGTTGCCT (site AGGTGTTCTAG)”, the “recombinant barcode read abundance (log10)” value was 0.716.

For “AGGTGTTCTTGGGTTCTAACCTGTTGCCT (site ATGCGTTCTAG)”, the “recombinant barcode read abundance (log10)” value is 0.018.

Regarding “AGTAAGACTTGGGTTCTAACCTGTTGCCT (site AGTAAGACTAA)”, the “recombinant barcode read abundance (log10)” value was 0.132.

For “AGTAAGACTTGGGTTCTAACCTGTTGCCT (site AGTAAGACTAC)”, the “recombinant barcode read abundance (log10)” value turned out to be 0.16.

Take “AGTAAGACTTGGGTTCTAACCTGTTGCCT (site AGTAAGACTAG)”: the “recombinant barcode read abundance (log10)” value was 1.69.

Take “AGTAAGACTTGGGTTCTAACCTGTTGCCT (site AGTAAGACTAT)”: the “recombinant barcode read abundance (log10)” value was 0.2.

In the case of “AGTAAGACTTGGGTTCTAACCTGTTGCTA (site ACTAAGACTCA)”, the “recombinant barcode read abundance (log10)” value is 0.154.

As to “AGTAAGACTTGGGTTCTAACCTGTTGCTA (site AGTAAGACTTA)”, the “recombinant barcode read abundance (log10)” value came out at 1.23.

On to “AGTAAGTCTTGGGTTCTAACCTGTTGCCT (site AATAAGTCTAG)”, for which the “recombinant barcode read abundance (log10)” value is 0.0805.

Take “AGTAAGTCTTGGGTTCTAACCTGTTGCCT (site ACTAAGTCTAG)”: the “recombinant barcode read abundance (log10)” value is 0.186.

For the sequence “AGTAAGTCTTGGGTTCTAACCTGTTGCCT (site AGTAAGTCTAG)”, the “recombinant barcode read abundance (log10)” value came out at 0.61.

For “AGTAAGTCTTGGGTTCTAACCTGTTGCCT (site ATTAAGTCTAG)”, the “recombinant barcode read abundance (log10)” value was 0.0108.

For the sequence “AGTAATTCTTGGGTTCTAACCTGTTGCCT (site AGAAATTCTAG)”, the “recombinant barcode read abundance (log10)” value came to 0.0418.

For the sequence “AGTAATTCTTGGGTTCTAACCTGTTGCCT (site AGCAATTCTAG)”, the “recombinant barcode read abundance (log10)” value was 0.0536.

On to “AGTAATTCTTGGGTTCTAACCTGTTGCCT (site AGGAATTCTAG)”, for which the “recombinant barcode read abundance (log10)” value came to 0.0166.

Consider “AGTAATTCTTGGGTTCTAACCTGTTGCCT (site AGTAATTCTAG)”, for which the “recombinant barcode read abundance (log10)” value amounted to 0.454.

For “AGTACCTCTTGGGTTCTAACCTGTTGCCT (site AATACCTCTAG)”, the “recombinant barcode read abundance (log10)” value came out at 0.192.

Turning to “AGTACCTCTTGGGTTCTAACCTGTTGCCT (site ACTACCTCTAG)”, the “recombinant barcode read abundance (log10)” value is 0.283.

On to “AGTACCTCTTGGGTTCTAACCTGTTGCCT (site AGTACCTCTAG)”, for which the “recombinant barcode read abundance (log10)” value was found to be 0.941.

With “AGTACCTCTTGGGTTCTAACCTGTTGCCT (site ATTACCTCTAG)”, the “recombinant barcode read abundance (log10)” value came to 0.0826.

As to “AGTAGACCTTGGGTTCTAACCTGTTGCTT (site AGTAGACCTAA)”, the “recombinant barcode read abundance (log10)” value was 0.828.

For the sequence “AGTAGACCTTGGGTTCTAACCTGTTGCTT (site AGTATACCTCA)”, the “recombinant barcode read abundance (log10)” value was found to be 0.0353.

As to “AGTATACCTTGGGTTCTAACCTGTTGCTG (site AGTAGACCTAA)”, the “recombinant barcode read abundance (log10)” value was 0.178.

For the sequence “AGTATACCTTGGGTTCTAACCTGTTGCTG (site AGTATACCTCA)”, the “recombinant barcode read abundance (log10)” value came out at 1.31.

For “AGTCAGACTTGGGTTCTAACCTGTTGCAC (site AGTCAGACTGT)”, the “recombinant barcode read abundance (log10)” value came out at 1.19.

For the sequence “AGTCAGACTTGGGTTCTAACCTGTTGCAC (site CTAAGCGCTAG)”, the “recombinant barcode read abundance (log10)” value came out at 0.396.

Regarding “AGTCAGCCTTGGGTTCTAACCTGTTGCCT (site AGTAAGCCTAG)”, the “recombinant barcode read abundance (log10)” value stood at 0.0129.
